Reference: patent publication US5028622A, “Administration of amino acids as treatment for neurodegenerative disorders” (Ajinomoto Company, Inc., priority 1989, dated 1991)
“Also recorded” adds a separate entry of the source. Read-outs that look alike come from different tables or passages of the source. Values belong to the compound of their own block, whether it stands above or below them.

Experiments:
[1] = tested on: glutamate dehydrogenase (GDH); settings: literature (Yielding and Tomkins 1961); cited from earlier work
clinical = settings: human, in vivo
Description: FIG. 4. Results of the branched-chain amino acid oral test dose. […] Blood samples were drawn at the times indicated and processed as previously described(5). Data points represent mean values from 9 patients ±SEM. * Denotes p<0.001 and p<005. Symbols refer comparisons to 0 time values according to the student's t-test.
(§1) Baseline blood chemistries and complete blood counts (CBC were obtained. To assure bioavailability of the BCAA, an oral test dose of the above-described mixture or placebo was given after overnight fasting at baseline. Blood samples were drawn at 0, 60 and 120 minutes after dosing for multi-chemistries, CBSs and serum ammonia and amino acid levels. In addition, a random blood sample was obtained for the above studies at three month intervals with no attention paid to time of oral dosing. Plasma amino acid levels were assayed as previously described. [A. Platakis and J. Caroscio, "Abnormal Glutamate Metabolism in Amyotrophic Lateral Sclerosis, " Ann Neurol, 1987, 22:575-579. The contents of this article are herein incorporated by reference]

[2] = Random blood samples during the one-year trial: plasma amino acid levels; format: in vivo, human; settings: amino acid-treated ALS patients
Experimental: as §1

ALS = settings: literature (Patten and Klein 1988); cited from earlier work
[3] = target: T1, glutamate dehydrogenase (GDH) (Homo sapiens, UniProt P00367); assay: In vitro leucine activation of membrane bound GDH in post mortem brain tissue; format: biochemical; settings: for activity at 250 µM: leucine 0.25 mM; for activity at 500 µM: leucine 0.50 mM; for activity at 1000 µM: leucine 1.0 mM; for activity at 5000 µM: leucine 5.0 mM; for activity at 10000 µM: leucine 10 mM
T1 construct: GDH present in post mortem brain tissue; from tissue; host or cells: human post mortem brain: cerebellum (control and multisystem atrophy patient 1), frontal cortex (multisystem atrophy patient 2)
T1 sequence (P00367 54-558): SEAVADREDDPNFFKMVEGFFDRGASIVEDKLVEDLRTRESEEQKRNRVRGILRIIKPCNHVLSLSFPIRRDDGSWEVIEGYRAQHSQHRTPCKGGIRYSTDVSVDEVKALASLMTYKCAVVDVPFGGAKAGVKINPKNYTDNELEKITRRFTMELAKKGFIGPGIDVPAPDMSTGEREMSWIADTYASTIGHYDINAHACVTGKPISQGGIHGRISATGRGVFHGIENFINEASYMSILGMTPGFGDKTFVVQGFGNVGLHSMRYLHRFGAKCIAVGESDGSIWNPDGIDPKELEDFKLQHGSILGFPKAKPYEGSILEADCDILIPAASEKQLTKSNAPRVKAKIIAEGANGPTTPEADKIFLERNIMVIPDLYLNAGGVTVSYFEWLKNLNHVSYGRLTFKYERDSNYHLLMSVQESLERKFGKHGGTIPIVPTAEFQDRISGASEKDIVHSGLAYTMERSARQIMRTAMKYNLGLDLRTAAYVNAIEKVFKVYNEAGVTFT
Description: (Table 4) Tissue preparation and GDH determinations were done according to methods previously reported. [A. D. Colon, A. Plaitakis, S. Berl, and D. D. Clark. "The purification and characterization of soluble and particulate Glutamate Dehydrogenase in Rat Brain," Neurochemistry, 1986, 46:1811-1819. The contents of this publication are herein incorporated by reference] […] FIG. 4.

[4] = in vivo; cited from earlier work
[5] = Control Patient Cerebellum, read-out: Percent Baseline GDH Activity
[6] = Multisystem Atrophy Multineuron Disease Patient 1 Cerebellum, read-out: Percent Baseline GDH Activity
[7] = Multisystem Atrophy Multineuron Disease Patient 2 Frontal Cortex, read-out: Percent Baseline GDH Activity

increase in plasma level following oral dosing (clinical; 60 min): 95%
increase in plasma level following oral dosing (clinical; 120 min): 53%
plasma level higher than that of placebo-treated patients [2]: 61%
Structure (SMILES): CC(C)[C@H](N)C(=O)O [L-valine]
activation of glutamate dehydrogenase in vitro [1]: allosterically activate

increase in plasma level following oral dosing (clinical; 60 min): 393%
increase in plasma level following oral dosing (clinical; 120 min): 183%
plasma level higher than that of placebo-treated patients [2]: 93%
Structure (SMILES): CC[C@H](C)[C@H](N)C(=O)O [L-isoleucine]
status of ALS patients treated with it as placebo substituted for L-threonine (ALS): revert to previous status
activation of glutamate dehydrogenase in vitro [1]: allosterically activate; also recorded: can be activated

activity at 250 µM [3, 5]: 117%
activity at 500 µM [3, 5]: 135%
activity at 1000 µM [3, 5]: 143%
activity at 2500 µM ([3]; Control Patient Cerebellum, leucine 2.5 mM, read-out: Percent Baseline GDH Activity): 155%
activity at 5000 µM [3, 5]: 155%
activity at 10000 µM [3, 5]: 160%
activity at 250 µM [3, 6]: 117%
activity at 500 µM [3, 6]: 153%
activity at 1000 µM [3, 6]: 186%
activity at 5000 µM [3, 6]: 176%
activity at 10000 µM [3, 6]: 176%
activity at 150 µM ([3]; Multisystem Atrophy Multineuron Disease Patient 2 Frontal Cortex, leucine 0.15 mM, read-out: Percent Baseline GDH Activity): 122%
activity at 250 µM [3, 7]: 128%
activity at 500 µM [3, 7]: 141%
lowest concentration effective in producing increases in GDH activity ([3]; post mortem brain tissue, effect concentration dependent): 0.15 mM
increase in plasma level following oral dosing (clinical; 60 min): 300%
increase in plasma level following oral dosing (clinical; 120 min): 192%
concentration at 1 h (clinical; po): ~450 µM
concentration at 2 h (clinical; po): ~300 µM
plasma level higher than that of placebo-treated patients [2]: 112%
Structure (SMILES): CC(C)C[C@H](N)C(=O)O [L-leucine]
status of ALS patients treated with it as placebo substituted for L-threonine (ALS): revert to previous status
activation of glutamate dehydrogenase in vitro [1]: allosterically activate; also recorded: can be activated
effect on plasma and CSF levels of the other two BCAAs [4]: severely depress
